Data published in patent US6410515B1, “Peptide, a method for its preparation and a pharmaceutical composition containing the peptide” (Immunotech Developments Inc., priority 1995, dated 2002).

Key:
[1] = tested on: hemopoietic progenitor cells (CFU-S); test: CFU-S content in bone marrow of mice irradiated with 4 Gy; format: in vivo; conditions: day 8, control 401 ± 48
Procedure: The effect of H-A-D-Trp-Y, where A is D-Glu or D-iGlu and Y is OH or a substituted amide, on protection and reconstitution of the population of hemopoietic progenitor cells in cytopenias of different origin was studied.
Ionising radiation was used to deplete bone marrow. Donor mice were irradiated at a dose of 4 Gy. For each of the two peptides, 10 μg/kg was injected intraperitoneally 1 hour, 1 day or 2 days before the irradiation (groups of 12 mice each). Bone marrow was taken from femoral bones 8 days after the irradiation. Eight days generally marks the beginning of an exponential reconstitution of both the total number of cells and the population of hemopoietic progenitors in the bone marrow, which were depleted as a result of irradiation.
On the 8th day a sharp statistically significant increase was recorded in the hemopoietic progenitor cells count in the bone marrow of the mice irradiated in the dose of 4 Gy who had received the peptide 2 days before the irradiation.

[2] = tested on: caryocytes in femoral marrow; test: Reconstitution of caryocyte numbers in femoral marrow after 4 Gy; format: in vivo, mice
Procedure: The reconstitution of caryocyte numbers and that of hemopoietic progenitors was studied in femoral marrow after irradiation in the dose of 4 Gy and the peptide injection. The test was performed in 12 groups of mice, 6 animals each, and lasted 14 days. Intraperitoneal injections of the peptide in a dose of 10 μg/kg were made 1 day and 2 days before the irradiation.

[3] = tested on: mixed lymphocyte culture (MLC); test: Mixed lymphocyte culture (MLC) proliferation; format: cell-based, mice; conditions: FIG. 1
Procedure: The influence of the peptides of the invention on the proliferation of a mixed lymphocyte culture (MLC) was studied. The MLC experimental system is an in vitro analogue of the GVHD reaction.
Donor spleen cells from C57B1 mice ([…]) were injected into recipient (CBA×C57B1) F1 mice. Bone marrow was removed from the recipient and cultured for 4 days. The cultured cells were separated into 3 test groups, one group was treated with iDD, one with the L-peptide H-Ile-Glu-Trp-OH and one was a control. Each test peptide was added in various concentrations. Each determination was done in triplicate. ^3H-thymidine was added to each culture for 16 hours and the index of the proliferation of the cells was calculated.

Substance | CFU-S count per femur ([1]; 10 μg/kg IP 1 hour before 4 Gy) | CFU-S count per femur ([1]; 10 μg/kg IP 1 day before 4 Gy) | CFU-S count per femur ([1]; 10 μg/kg IP 2 days before 4 Gy) | Caryocyte count ([2]; 10 μg/kg IP 1 day before 4 Gy, 4 days after irradiation, 4 Gy alone 9,0 ± 0,3) | Caryocyte count ([2]; 10 μg/kg IP 1 day before 4 Gy, 7 days after irradiation, 4 Gy alone 10,6 ± 0,8) | Caryocyte count ([2]; 10 μg/kg IP 1 day before 4 Gy, 11 days after irradiation, 4 Gy alone 17,0 ± 0,6) | Caryocyte count ([2]; 10 μg/kg IP 1 day before 4 Gy, 14 days after irradiation, 4 Gy alone 17,0 ± 1,2) | Caryocyte count ([2]; 10 μg/kg IP 2 days before 4 Gy, 4 days after irradiation, 4 Gy alone 9,0 ± 0,3) | Caryocyte count ([2]; 10 μg/kg IP 2 days before 4 Gy, 7 days after irradiation, 4 Gy alone 10,6 ± 0,8) | Caryocyte count ([2]; 10 μg/kg IP 2 days before 4 Gy, 11 days after irradiation, 4 Gy alone 17,0 ± 0,6) | Caryocyte count ([2]; 10 μg/kg IP 2 days before 4 Gy, 14 days after irradiation, 4 Gy alone 17,0 ± 1,2) | Effect on proliferation of the allogenic lymphocytes (MLC) ([3]; 0.1 μg/ml) | Effect on proliferation of the allogenic lymphocytes (MLC) ([3]; concentrations 1, 10, 20 μg/ml)
H-D-Glu-D-Trp-OH | 450 ± 95 | 780 ± 92 | 955 ± 93 | 8,0 ± 0,7 × 10^6 | 16,4 ± 0,7 × 10^6 | 16,0 ± 1,3 × 10^6 | 15,0 ± 0,6 × 10^6 | 8,5 ± 0,5 × 10^6 | 20,0 ± 0,7 × 10^6 | 23,0 ± 1,9 × 10^6 | 24,5 ± 0,9 × 10^6 | – | –
H-Ile-Glu-Trp-OH [reference compound] | – | – | – | – | – | – | – | – | – | – | – | negligible inhibition | stimulates the proliferation
